Data from US20130023494A1, “MODULATORS OF THE GPR119 RECEPTOR AND THE TREATMENT OF DISORDERS RELATED THERETO” (ARENA PHARMACEUTICALS, INC., priority 2010, published 2013).

How the values were obtained:
hGPR119 = target: T1, hGPR119 (Homo sapiens, UniProt Q8TDV5); assay: HTRF cAMP assay in CHO-K1 cells stably expressing the GPR119 receptor; format: cell-based; details: 1 h room temperature
T1 construct: expressed in transfected cells
T1 sequence (Q8TDV5 2-335 limits assumed): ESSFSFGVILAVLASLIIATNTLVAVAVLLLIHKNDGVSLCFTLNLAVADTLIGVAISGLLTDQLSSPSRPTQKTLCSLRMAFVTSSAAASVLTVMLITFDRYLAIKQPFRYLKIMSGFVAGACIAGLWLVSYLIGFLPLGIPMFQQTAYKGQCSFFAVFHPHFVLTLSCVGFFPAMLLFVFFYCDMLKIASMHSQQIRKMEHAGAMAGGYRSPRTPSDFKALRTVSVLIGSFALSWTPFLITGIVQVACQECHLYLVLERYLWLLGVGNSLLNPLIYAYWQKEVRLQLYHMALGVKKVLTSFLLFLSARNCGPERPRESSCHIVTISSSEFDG
Protocol: GPR119 agonists were evaluated in an HTRF® cAMP detection assay according to the manufacturer's instructions (Cisbio, cAMP Dynamic 2 Assay Kit; #62AM4PEJ) using CHO-K1 cells stably expressing the GPR119 receptor. Briefly, CHO-K1 cells were transduced with a lentiviral vector encoding the nucleotide sequence of GPR119 (NCBI mRNA and protein reference sequences: NM_178471.2 & NP_848566, (GPR119 has also been referred to as Glucose-Dependent Insulinotropic Receptor (GDIR)). The N-terminus of the GPR119 nucleotide sequence was modified to replace the first, methionine-coding codon with a nucleotide sequence coding for a standard, nine amino acid, hemagglutinin tag. Following transduction, cells expressing the GPR119 receptor were isolated and a single clone was isolated following standard dilution-cloning procedures. On the day of the assay, cultured CHO-GPR119 cells were harvested, suspended in assay buffer and plated into 384-well assay plates (PerkinElmer Proxiplate #6008280) at a density of 2,000 cells per well. A cAMP standard curve was added to each plate. Test compounds were solubilized in DMSO, serially diluted in DMSO and then diluted in assay buffer before adding to the cells. Test compounds were evaluated in triplicate, using 10-point, 5-fold serial dilutions starting at 10 μM. The final DMSO concentration in the assay was 0.5%. Compounds and cells were incubated for 1 h at room temperature and then detection reagents were added to each well (cAMP-D2 in cell lysis buffer, followed by europium cryptate-labeled anti-cAMP antibody). Plates were then incubated at room temperature for 1 h prior to reading. Time-resolved fluorescence measurements were collected on PerkinElmer Envision™ or BMG Pherastar™ microplate readers. The compound N-(2-fluoro-4-(methylsulfonyl)phenyl)-6-(4-(3-isopropyl-1,2,4-oxadiazol-5-yl)piperidin-1-yl)-5-nitropyrimidin-4-amine was used as a positive control in each runset while assay buffer containing 0.5% DMSO was used as the negative control. The HTRF® assay was used to determine EC50 values for GPR119 agonists.

incretin hormone GIP = assay: Incretin hormone GIP release in male 129SVE mice (Total GIP ELISA); format: in vivo, mouse; details: 10 mpk p.o., plasma sample after 45 min, PET vehicle 72.5
Protocol: Male 129SVE mice (approximately 8-week old) were fasted for 18 h and randomly grouped (n=6) to receive a GPR119 agonist (Compound 28, Compound 73, Compound 71, Compound 62, and Compound 30) at 10 mpk dose (mg/kg body weight). Compounds were delivered orally via a gavage needle (p.o., volume 4 mL/kg), and after 45 min a blood sample was collected to determine plasma total GIP levels. A separate group received vehicle (PET: 80% PEG:10% Ethanol:10% Tween80™) as control. Plasma GIP levels were determined using a Total GIP ELISA kit from Millipore.

male diabetic ZDF rats = assay: Oral glucose tolerance test (oGTT) in male diabetic ZDF rats; format: in vivo, rat; details: for % Inhibition of Glucose Excursion (dose: mg/kg): ZDF rats, glucose excursion AUC reduction relative to vehicle; for blood glucose after challenge with glucose: diabetic ZDF rats
Protocol: FIGS. 1 to 4, 16 and 17 show results of three independent experiments with three representative GPR119 agonists of the present invention, namely, Compound 28, Compound 62, and Compound 83. In each experiment, male ZDF rats (approximately 10-week old) were fasted for 18 hours and randomly grouped (n=6) to receive a GPR119 agonist (Compound 28, Compound 62, or Compound 83) at indicated doses (mg/kg body weight). Compounds were delivered orally via a gavage needle (p.o., volume 4 mL/kg) 1 h prior to glucose bolus (3 g/kg) (time=−60 min in FIGS. 1, 3, and 16), with a separate group receiving vehicle (20% hydroxypropyl-beta-cyclodextrin) as control in each experiment. At time 0 min the glucose bolus was administered. Levels of blood glucose were assessed using a glucometer (One-Touch Ultra™, LifeScan) at time −60 min (prior to compound administration), at 0 min (time when glucose bolus was given), and at 30, 60, 90, 120 min post glucose bolus. The plasma glucose excursion curves are given in FIGS. 1, 3, and 16, and glucose excursion AUC (area under the curve) reductions in compound treated animals relative to vehicle control are given in FIGS. 2, 4, and 17, and in Table 1.

[1] = 10 mg/kg p.o. 1 h prior to glucose bolus (3 g/kg)

`CC(C)(C)OC(=O)N1CCC(O[C@H]2CC[C@@H](Oc3ccc(S(C)(=O)=O)cc3)CC2)CC1` [Compound 1, tert-butyl 4-((1s,4s)-4-(4-(methylsulfonyl)phenoxy)cyclohexyloxy)piperidine-1-carboxylate] showed an EC50 (hGPR119) of 266 nM.

For `CC(C)(C)OC(=O)N1CCC(O[C@H]2CC[C@H](Oc3ccc(S(C)(=O)=O)cc3F)CC2)CC1` [Compound 5, tert-butyl 4-((1r,4r)-4-(2-fluoro-4-(methylsulfonyl)phenoxy)cyclohexyloxy)piperidine-1-carboxylate], the EC50 (hGPR119) was 8 nM.

Compound `CC(C)OC(=O)N1CCC(O[C@H]2CC[C@H](Oc3ccc(S(C)(=O)=O)cc3F)CC2)CC1` [Compound 13, isopropyl 4-((1r,4r)-4-(2-fluoro-4-(methylsulfonyl)phenoxy)cyclohexyloxy)piperidine-1-carboxylate] has an EC50 (hGPR119) of 19 nM.

`CC(C)(F)c1noc(N2CCC(O[C@H]3CC[C@H](Oc4cnc(S(C)(=O)=O)cn4)CC3)CC2)n1` [Compound 30, 3-(2-fluoropropan-2-yl)-5-(4-((1r,4r)-4-(5-(methylsulfonyl)pyrazin-2-yloxy)cyclohexyloxy)piperidin-1-yl)-1,2,4-oxadiazole] was tested, and the “Total GIP, pg/mL (dose, mg/kg)” value (incretin hormone GIP) was 375.7 pg/mL.

For `CC(C)(C)OC(=O)CN1CCC(O[C@H]2CC[C@H](Oc3ccc(S(C)(=O)=O)cc3)CC2)CC1` [Compound 35, tert-butyl 2-(4-((1r,4r)-4-(4-(methylsulfonyl)phenoxy)cyclohexyloxy)piperidin-1-yl)acetate], the EC50 (hGPR119) was 426 nM.

In the case of `CCC(F)(F)C(=O)N1CCC(O[C@H]2CC[C@H](Oc3ccc(S(C)(=O)=O)cc3)CC2)CC1` [Compound 48, 2,2-difluoro-1-(4-((1r,4r)-4-(4-(methylsulfonyl)phenoxy)cyclohexyloxy)piperidin-1-yl)butan-1-one], the EC50 (hGPR119) is reported as 11 nM.

`CC(C)(F)c1nc(N2CCC(O[C@H]3CC[C@H](Oc4cnc(S(C)(=O)=O)cn4)CC3)CC2)no1` [Compound 62, 5-(2-fluoropropan-2-yl)-3-(4-((1r,4r)-4-(5-(methylsulfonyl)pyrazin-2-yloxy)cyclohexyloxy)piperidin-1-yl)-1,2,4-oxadiazole] was tested, and the “% Inhibition of Glucose Excursion (dose: mg/kg)” value (shortened to “% Inhibition”) (male diabetic ZDF rats; 3.3 mg/kg p.o. 1 h prior to glucose bolus (3 g/kg)) was 25.7% (3.3), the “% Inhibition” value (male diabetic ZDF rats; [1]) was 32.7% (10) and the “% Inhibition” value (male diabetic ZDF rats; 30 mg/kg p.o. 1 h prior to glucose bolus (3 g/kg)) was 48.0% (30). For the same compound, the “blood glucose after challenge with glucose” value (male diabetic ZDF rats) was “lowered blood glucose” and the “Total GIP, pg/mL (dose, mg/kg)” value (incretin hormone GIP) was 368.5 pg/mL.

In the case of `C=C(C)c1noc(N2CCC(O[C@H]3CC[C@H](Oc4cnc(S(C)(=O)=O)cn4)CC3)CC2)n1` [Compound 69, 5-(4-((1r,4r)-4-(5-(methylsulfonyl)pyrazin-2-yloxy)cyclohexyloxy)piperidin-1-yl)-3-(prop-1-en-2-yl)-1,2,4-oxadiazole], the EC50 (hGPR119) is reported as 31 nM.

`CS(=O)(=O)c1cnc(O[C@H]2CC[C@H](OC3CCN(C(=O)OC(CF)CF)CC3)CC2)cn1` [Compound 71, 1,3-difluoropropan-2-yl 4-((1r,4r)-4-(5-(methylsulfonyl)pyrazin-2-yloxy)cyclohexyloxy)piperidine-1-carboxylate] was tested, and the “Total GIP, pg/mL (dose, mg/kg)” value (incretin hormone GIP) was 379.8 pg/mL.

For `CCC(F)(F)C(=O)N1CCC(O[C@H]2CC[C@H](Oc3cnc(S(C)(=O)=O)cn3)CC2)CC1` [Compound 73, 2,2-difluoro-1-(4-((1r,4r)-4-(5-(methylsulfonyl)pyrazin-2-yloxy)cyclohexyloxy)piperidin-1-yl)butan-1-one], the “Total GIP, pg/mL (dose, mg/kg)” value (incretin hormone GIP) was 195.2 pg/mL.

With `CC(C)OC(=O)N1CCC(O[C@H]2CC[C@H](Oc3cnc(-c4ccnnc4)cn3)CC2)CC1` [Compound 77, isopropyl 4-((1r,4r)-4-(5-(pyridazin-4-yl)pyrazin-2-yloxy)cyclohexyloxy)-piperidine-1-carboxylate] the EC50 (hGPR119) was 281 nM.

`C[C@@H](OC(=O)N1CCC(O[C@H]2CC[C@H](Oc3cnc(S(C)(=O)=O)cn3)CC2)CC1)C(F)(F)F` [Compound 83, (R)-1,1,1-trifluoropropan-2-yl 4-((1r,4r)-4-(5-(methylsulfonyl)pyrazin-2-yloxy)cyclohexyloxy)piperidine-1-carboxylate] was tested, and the “% Inhibition” value (male diabetic ZDF rats; 1.0 mg/kg p.o. 1 h prior to glucose bolus (3 g/kg)) was 14.4% (1.0), the “% Inhibition” value (male diabetic ZDF rats; 3.0 mg/kg p.o. 1 h prior to glucose bolus (3 g/kg)) was 44.3% (3.0) and the “% Inhibition” value (male diabetic ZDF rats; [1]) was 57.9% (10). The “blood glucose after challenge with glucose” value (male diabetic ZDF rats) was “lowered blood glucose” and the EC50 (hGPR119) was 3 nM.

In the case of `CC(C)c1noc(N2CCC(O[C@H]3CC[C@H](Oc4cnc(C(=O)N(C)C)cn4)CC3)CC2)n1` [Compound 98, 5-((1r,4r)-4-(1-(3-isopropyl-1,2,4-oxadiazol-5-yl)piperidin-4-yloxy)cyclohexyloxy)-N,N-dimethylpyrazine-2-carboxamide], the EC50 (hGPR119) is reported as 152 nM.

With `Cc1nc(S(C)(=O)=O)ccc1O[C@H]1CC[C@H](OC2CCN(C(=O)SC(C)C)CC2)CC1` [Compound 116, S-isopropyl 4-((1r,4r)-4-(2-methyl-6-(methylsulfonyl)pyridin-3-yloxy)cyclohexyloxy)piperidine-1-carbothioate] the EC50 (hGPR119) was 5 nM.
